Results on 1 compound are retold here after patent US20210355435A1, “CULTURE MEDIUM COMPRISING KETO ACIDS” (Evonik Operations GmbH, priority 2018, published 2021).

Assay [1] deals with CHO cells (subclone DG44). Kind of assay: Antibody production in CHO cells with keto leucine instead of L-leucine. Format: cell-based, Chinese hamster. The conditions noted are these: keto leucine as calcium salt, reference normalized to 1.0. As for the experimental part:
(§1) Antibody producing chinese hamster ovary (CHO) cells (subclone DG44) were cultivated in shake flasks (125 ml or 250 ml with a culture volume of 50 ml or 100 ml respectively) in TC42/CHOMACS CD culture medium (TeutoCell AG) containing 8 mM L-glutamine. The culture medium was prepared by mixing two solutions. The first contained the conventional medium formulation (containing L-leucine and calcium chloride). In the second, the amino acid L-leucine in the culture medium was substituted by keto leucine (178 mg/l) as calcium salt in equimolar quantities. These solutions were mixed in different ratios. The growth of cells cultivated in the different mixtures was compared to cells cultivated in the conventional culture medium.
The concentration of antibody produced by the cells cultivated in the reference culture medium containing L-leucine (Reference) were normalized to 1.0.

For assay [2], the system named is CHO cells (subclone DG44). Nature of the assay: Growth of CHO cells in medium with keto leucine instead of L-leucine. Format: cell-based, Chinese hamster. The conditions noted are these: keto leucine as calcium salt instead of L-leucine, up to 178 mg/l, third passage. As to the method: as §1
A corresponds to cells cultivated in a culture medium containing 178 mg/L of keto leucine, B to a mixture containing 30% (v/v) of the keto leucine solution, C to a mixture containing 5% (v/v) of the keto leucine solution and a reference containing only L-leucine.

As for `CC(C)CC(=O)C(=O)O` [keto leucine, alpha-keto isocaproate], the “antibody production with keto leucine instead of L-leucine” value in assay [1] is on record as “L-leucine can be substituted”. Also, the “viable cell density versus reference medium with L-leucine” value in assay [2] was “slightly reduced”.
